# Experimental data taken from US20050197350A1, “Novel quinoline, tetrahydroquinazoline, and pyrimidine derivatives and methods of treatment related to the use thereof” (TAISHO PHARMACEUTICAL CO., LTD., priority 2003, published 2005).
# pIC50: −log10 of the molar value. Structures can show the parent of a compound that is named as a salt.
# Biological target: MCH receptor (Homo sapiens, UniProt Q99705)
# Experiment: High throughput functional screening FLIPR/FDSS6000 (intracellular Ca2+ evoked by MCH)
# Type: cell-based
# Settings: FLIPR/FDSS, antagonist activity vs 50 nM MCH; class by percent of control at 10^−7 M or IC50; read-out: class
# How it was run: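 For antagonist testing, compound-treated cells (30 min, 37 °C) were stimulated with 50 nM MCH and intracellular Ca2+ followed by Fluo4 fluorescence on FLIPR/FDSS6000. Receptor was a constitutively active, non-endogenous MCH receptor; dye loading 4 μM Fluo4-AM, 1 h, 37 °C.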
row,pIC50,Structure (SMILES)
1,< 6.70,"COc1cccc(S(=O)(=O)c2ncccc2C(=O)N[C@H]2CC[C@@H](Nc3nc(C)cc(N(C)C)n3)CC2)c1 [Example 3379, N-(cis-4-{[4-(dimethylamino)-6-methylpyrimidin-2-yl]amino}cyclohexyl)-2-[(3-methoxyphenyl)sulfonyl]-nicotinamide]"
2,< 6.70,"COc1ccc(S(=O)(=O)c2ncccc2C(=O)N[C@H]2CC[C@@H](Nc3nc(C)cc(N(C)C)n3)CC2)cc1 [Example 3380, N-(cis-4-{[4-(dimethylamino)-6-methylpyrimidin-2-yl]amino}cyclohexyl)-2-[(4-methoxyphenyl)sulfonyl]-nicotinamide]"
3,< 6.70,"Cc1cc(N(C)C)nc(N[C@H]2CC[C@@H](NC(=O)c3cccnc3S(=O)(=O)c3ccccc3C(F)(F)F)CC2)n1 [Example 3381, N-(cis-4-{[4-(dimethylamino)-6-methylpyrimidin-2-yl]amino}cyclohexyl)-2-{[2-(trifluoromethyl)phenyl]-sulfonyl}nicotinamide]"
4,> 7.30,"Cc1cc(N[C@H]2CC[C@@H](NC(=O)c3ccc(OC(F)(F)F)cc3)CC2)nc2ccccc12 [Example 3382, N-{cis-4-[(4-methylquinolin-2-yl)amino]cyclohexyl}-4-(trifluoromethoxy)benzamide]"

# Same assay, conditions: FLIPR/FDSS, antagonist activity vs 50 nM MCH; class by percent of control at 10^−7 M or IC50; table after the classification; read-out: class
row,pIC50,Structure (SMILES)
1,> 7.30,"CNc1nc(N[C@H]2CC[C@@H](NC(=O)c3ccc(F)c(Cl)c3)CC2)ncc1C [Example 3386, 3-Chloro-4-fluoro-N-[cis-4-(5-methyl-4-methylamino-pyrimidin-2-ylamino)-cyclohexyl]-benzamide hydrochloride]"
2,> 7.30,"Cc1cnc(N[C@H]2CC[C@@H](NC(=O)c3ccc(Cl)c(F)c3)CC2)nc1N(C)C [Example 3387, 4-Chloro-N-[cis-4-(4-dimethylamino5-methyl-pyrimidin-2-ylamino)-cyclohexyl]3-fluoro-benzamide hydrochloride]"
3,> 7.30,"Cc1cnc(N[C@H]2CC[C@@H](NC(=O)c3cc(F)cc(Cl)c3)CC2)nc1N(C)C [Example 3388, 3-Chloro-N-[cis-4-(4-dimethylamino5-methyl-pyrimidin-2-ylamino)-cyclohexyl]5-fluoro-benzamide hydrochloride]"
4,< 6.70,"Cc1cnc(N[C@H]2CC[C@@H](NC(=O)c3ccc(F)c(Cl)c3)CC2)nc1N [Example 3392, N-[cis-4-(4-Amino-5-methyl-pyrimidin-2-ylamino)-cyclohexyl]-3-chloro-4-fluoro-benzamide hydrochloride]"
5,> 7.30,"Cc1cc(N[C@H]2CC[C@@H](NC(=O)c3cncc(Cl)c3)CC2)nc2ccccc12 [Example 3396, 5-Chloro-N-[cis-4-(4-methyl-quinolin-2-ylamino)-cyclohexyl]-nicotinamide]"
6,> 7.30,"Cc1cc(N[C@H]2CC[C@@H](NC(=O)c3cncc(F)c3)CC2)nc2ccccc12 [Example 3397, 5-Fluoro-N-[cis-4-(4-methyl-quinolin-2-ylamino)-cyclohexyl]-nicotinamide]"

# The next lines start with the molecule.
row,Structure (SMILES),pIC50
1,"Cc1cc(N(C)C)nc(N[C@H]2CC[C@@H](NC(=O)c3ccc(Cl)c(F)c3)CC2)n1 [Example 3383, 4-Chloro-N-[cis-4-(4-dimethylamino6-methyl-pyrimidin-2-ylamino)-cyclohexyl]3-fluoro-benzamide hydrochloride]",> 7.30
2,"Cc1cc(N(C)C)nc(N[C@H]2CC[C@@H](NC(=O)c3cc(F)cc(Cl)c3)CC2)n1 [Example 3384, 3-Chloro-N-[cis-4-(4-dimethylamino6-methyl-pyrimidin-2-ylamino)-cyclohexyl]5-fluoro-benzamide hydrochloride]",> 7.30
3,"Cc1cc(N(C)C)nc(N[C@H]2CC[C@@H](NC(=O)c3cc(F)c(F)c(F)c3)CC2)n1 [Example 3385, N-[cis-4-(4-Dimethylamino-6-methyl-pyrimidin-2-ylamino)-cyclohexyl]-3,4,5-trifluoro-benzamide hydrochloride]",> 7.30
4,"Cc1cnc(N[C@H]2CC[C@@H](NC(=O)c3cc(F)c(F)c(F)c3)CC2)nc1N(C)C [Example 3389, N-[cis-4-(4-Dimethylamino-5-methyl-pyrimidin-2-ylamino)-cyclohexyl]-3,4,5-trifluoro-benzamide hydrochloride]",> 7.30
5,"Cc1cnc(N[C@H]2CC[C@@H](NC(=O)c3cc(F)cc(F)c3)CC2)nc1N(C)C [Example 3390, N-[cis-4-(4-Dimethylamino-5-methyl-pyrimidin-2-ylamino)-cyclohexyl]-3,5-difluoro-benzamide hydrochloride]",> 7.30
6,"Cc1cnc(N[C@H]2CC[C@@H](NC(=O)Cc3ccc(F)c(F)c3)CC2)nc1N(C)C [Example 3391, 2-(3,4-Difluoro-phenyl)-N-[cis-4-(4-dimethylamino-5-methyl-pyrimidin-2-ylamino)-cyclohexyl]-acetamide hydrochloride]",> 7.30
7,"CN(C)c1ccnc(N[C@H]2CC[C@@H](NC(=O)COc3ccc(Cl)c(Cl)c3)CC2)n1 [Example 3393, 2-(3,4-Dichloro-phenoxy)-N-[cis-4-(4-dimethylamino-pyrimidin-2-ylamino)-cyclohexyl]-acetamide hydrochloride]",> 7.30
8,"COc1cccc(OCC(=O)N[C@H]2CC[C@@H](Nc3nccc(N(C)C)n3)CC2)c1 [Example 3394, N-[cis-4-(4-Dimethylamino-pyrimidin-2-ylamino)-cyclohexyl]-2-(3-methoxy-phenoxy)-acetamide hydrochloride]",> 7.30
